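These data come from cells grown in 96-well plates and exposed to compound for 48 hours at five concentrations. At the TGI there is no net growth.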
How the values were obtained:
Experiment in all cases: NCI anticancer screen, dose series, 48 h
[1] = test system: 786-0 renal
[2] = test system: A498 renal
[3] = test system: A549 NSCLC
[4] = test system: ACHN renal
[5] = test system: BT-549 breast
[6] = test system: CAKI-1 renal
[7] = test system: CCRF-CEM leukemia
[8] = test system: COLO 205 colon
[9] = test system: DU-145 prostate
[10] = test system: EKVX NSCLC
[11] = test system: HCC-2998 colon
[12] = test system: HCT-116 colon
[13] = test system: HCT-15 colon
[14] = test system: HL-60(TB) leukemia
[15] = test system: HOP-62 NSCLC
[16] = test system: HOP-92 NSCLC
[17] = test system: HS 578T breast
[18] = test system: HT29 colon
[19] = test system: IGROV1 ovarian
[20] = test system: K-562 leukemia
[21] = test system: KM12 colon
[22] = test system: LOX IMVI melanoma
[23] = test system: M14 melanoma
[24] = test system: MALME-3M melanoma
[25] = test system: MCF7 breast
[26] = test system: MDA-MB-231 breast
[27] = test system: MDA-MB-435
[28] = test system: MDA-N
[29] = test system: MOLT-4 leukemia
[30] = test system: NCI-H226 lung
[31] = test system: NCI-H23 lung
[32] = test system: NCI-H460 lung
[33] = test system: NCI-H522 lung
[34] = test system: NCI/ADR-RES ovarian
[35] = test system: OVCAR-3 ovarian
[36] = test system: OVCAR-4 ovarian
[37] = test system: OVCAR-5 ovarian
[38] = test system: OVCAR-8 ovarian
[39] = test system: PC-3 prostate
[40] = test system: RPMI-8226 leukemia
[41] = test system: RXF 393 renal
[42] = test system: SF-268 CNS
[43] = test system: SF-295 CNS
[44] = test system: SK-MEL-2 melanoma
[45] = test system: SK-MEL-28 melanoma
[46] = test system: SK-MEL-5 melanoma
[47] = test system: SK-OV-3 ovarian
[48] = test system: SN12C renal
[49] = test system: SNB-19 CNS
[50] = test system: SNB-75 CNS
[51] = test system: SW-620 colon
[52] = test system: T-47D breast
[53] = test system: TK-10 renal
[54] = test system: U251 CNS
[55] = test system: UACC-257 melanoma
[56] = test system: UACC-62 melanoma
[57] = test system: UO-31 renal

With `CC(CC(C#N)(c1ccccc1)c1ccccc1)N1CCCCC1` (configuration not stated) the TGI [1] was 80.3 µM, the TGI [2] was 85.1 µM and the TGI [3] was greater than 100 µM. It also gave a TGI [4] greater than 100 µM, a TGI [5] greater than 100 µM and a TGI [6] greater than 100 µM. The TGI [7] was 46.6 µM, the TGI [8] was 32.9 µM and the TGI [9] was greater than 100 µM. It also gave a TGI [10] of 56.3 µM, a TGI [11] of 29.1 µM and a TGI [12] of 57.7 µM. It also gave a TGI [13] of 68.6 µM, a TGI [14] of 42.3 µM and a TGI [15] of 88.4 µM. For the same molecule, the TGI [16] was greater than 100 µM, the TGI [17] was 79.9 µM and the TGI [18] was 51 µM. The TGI [19] was greater than 100 µM, the TGI [20] was 45.5 µM and the TGI [21] was 49.2 µM. It also gave a TGI [22] of 33.5 µM, a TGI [23] of 39.1 µM and a TGI [24] of 35.6 µM. For the same molecule, the TGI [25] was 74.7 µM, the TGI [26] was 63.8 µM and the TGI [27] was 49.4 µM. For the same molecule, the TGI [28] was 46.7 µM, the TGI [29] was 49.3 µM and the TGI [30] was 46.4 µM. It also gave a TGI [31] greater than 100 µM, a TGI [32] of 31.7 µM and a TGI [33] of 36.7 µM. The TGI [34] was greater than 100 µM, the TGI [35] was 44.5 µM and the TGI [36] was greater than 100 µM. For the same molecule, the TGI [37] was greater than 100 µM, the TGI [38] was greater than 100 µM and the TGI [39] was greater than 100 µM. The TGI [40] was 40.7 µM, the TGI [41] was greater than 100 µM and the TGI [42] was greater than 100 µM. It also gave a TGI [43] of 65.8 µM, a TGI [44] of 46.4 µM and a TGI [45] of 67 µM. For the same molecule, the TGI [46] was 33.6 µM, the TGI [47] was greater than 100 µM and the TGI [48] was 74.5 µM. The TGI [49] was greater than 100 µM, the TGI [50] was greater than 100 µM and the TGI [51] was 49.5 µM. For the same molecule, the TGI [52] was greater than 100 µM, the TGI [53] was 46.5 µM and the TGI [54] was greater than 100 µM. It also gave a TGI [55] of 29.6 µM, a TGI [56] of 59.1 µM and a TGI [57] of 79.6 µM.

Source: PubChem BioAssay (NCI)
